Reference: patent US20220249413A1, “SWELL 1 MODULATORS FOR TREATMENT OF NON-ALCOHOLIC FATTY LIVER DISEASE, IMMUNE DEFICIENCIES, MALE INFERTILITY AND VASCULAR DISEASES” (priority 2019, published 2022)

Test system: insulin-AKT2-AS160 signaling
Test: Insulin-stimulated pAKT2/pAS160 signaling in 3T3-F442A cells (Western blot)
Assay type: cell-based
Description: For Smod1 (DCPIB) mediated induction of SWELL1 and insulin signaling studies in 3T3-F442A preadipocytes, the cells were incubated with either vehicle (DMSO) or 10 μM Smod1 for 96 h. The cells were serum starved for 6 h (+DMSO or Smod1) and stimulated with 0, 3 and 10 nM insulin containing media (−DMSO or Smod1), as described above for 15 mins and the lysates were collected. In the case of 3T3-F442A adipocytes, the WT and KO cells were treated with either vehicle (DMSO) or 10 μM Smod1 following 7-11 days of differentiation for 96 h and then stimulated with 0 and 10 nM insulin for 15 min, as described above. Human embryonic kidney (HEK) cells were cultured and maintained in 90% DMEM (25 mM D-Glucose and 4 mM L-Glutamine) containing 10% fetal bovine serum (FBS) and 100 IU penicillin and 100 μg/ml streptomycin media.
Electrophysiology Patch-clamp recordings of β-cells and mature adipocytes were performed as described previously (Zhang et al., Nat Cell Biol, 19, 504-517, 2017; Kang et al., Nature Communications, 9, 367, 2018). 3T3-F442A WT and KO preadipocytes were prepared as described in the Cell culture section above. For SWELL1 overexpression recordings, preadipocytes were first transduced with Ad5-CAG-LoxP-stop-LoxP-3× Flag-SWELL1 (MOI 12) in 2% FBS culture medium for two days and then overexpression induced by adding Ad5-CMV-Cre-wt-IRES-eGFP (MOI 10-12) in 2% FBS culture medium for two more days and changed to 10% FBS containing culture media and were selected based on GFP expression (˜2-3 days). For 3-cell recordings, islets were transduced with Ad-RIP2-GFP and then dispersed after 48-72 hours for patch-clamp experiments. GFP+ cells marked […] selected for patch-clamp recordings. Recordings were measured using Axopatch 200B amplifier paired to a Digidata 1550 digitizer using pClamp 10.4 software. The extracellular buffer composition for hypotonic stimulation contains 90 mM NaCl, 2 mM CsCl, 1 mM MgCl2, 1 mM CaCl2), 10 mM HEPES, 10 mM Mannitol, pH 7.4 with NaOH (210 mOsm/kg). […] The images were further analyzed for band intensities using ImageJ software. […]

CCCCC1(C2CCCC2)Cc2cc(OCCCC(=O)O)c(Cl)c(Cl)c2C1=O (stereo not drawn) [Smod1, 4-[(2-Butyl-6,7-dichloro-2-cyclopentyl-2,3-dihydro-1-oxo-1H-inden-5-yl)oxy]butanoic acid]
effects on insulin-AKT2-AS160 signaling in SWELL1 KO (SWELL1 KO 3T3-F442A adipocytes): absent | insulin-stimulated pAS160 (WT 3T3-F442A adipocytes, 10 μM for 96 h): enhanced | insulin-stimulated pAKT2 (WT 3T3-F442A preadipocytes/adipocytes, 10 μM for 96 h): enhanced
